Patent publication US11261213B2, “Crystalline bis- and tris-hydrochloride salt of elamipretide” (Stealth BioTherapeutics Inc., priority 2018, dated 2022)
In brackets after ≈: the same amount, converted by molar mass. Structures can show the parent of a compound that is named as a salt. Where two headings read alike, the source gives them in different places. Residues, ends and D or L forms follow the SMILES beside them.

Tests used:
[1] = Effect of drying and humidity exposure on crystalline solid (XRPD); type: physicochemical
Experimental: Powder x-ray diffraction (XRPD) experiments were performed on a Rigaku MiniFlex 600 equipped with a Cu Kα radiation source (wavelength of x-rays 1.54 Å), and a scintillation detector. Samples were prepared on Si zero-return wafers. Scans were performed from 2θ 4 to 30 degrees over a step size of 0.05 over thirty minutes with cathode ray tube voltage and current 40 kV and 15 mA, respectively.
The crystalline solid was dried at 50 C under vacuum overnight, and analyzed by XRPD. […] Furthermore, the dry solid was exposed to about 95% relative humidity at room temperature for 24 hours followed by XRPD analysis. […] It should be noted that 3-HCl salt of MTP-131 deliquesces at more than 70% relative humidity.

[2] = physchem; conditions: water
Experimental: The solubility of the crystalline solid was assessed qualitatively in water.

[3] = Gravimetric vapour sorption (GVS); type: physicochemical
Experimental: Approximately 15 mg of sample was placed into a mesh vapour sorption balance pan and loaded into an IGASorp Moisture Sorption Analyser balance by Hiden Analytical. The sample was subjected to a ramping profile from 40-90% relative humidity (RH) at 10% increments, maintaining the sample at each step until a stable weight had been achieved (98% step completion). After completion of the sorption cycle, the sample was dried using the same procedure to 0% RH, then subjected to a second ramping profile from 0-90% relative humidity. After completion of the second sorption cycle, the sample was dried using the same procedure to 0% RH, and finally taken back to the starting point of 40% RH. The weight change during the sorption/desorption cycles were plotted, allowing for the hygroscopic nature of the sample to be determined.

[4] = physchem

Q: Which “Physical integrity after humidity exposure” value ([1]; about 95% relative humidity, room temperature, 24 hours) does the source give for `Cc1cc(O)cc(C)c1C[C@H](NC(=O)[C@H](N)CCCNC(=N)N)C(=O)N[C@@H](CCCCN)C(=O)N[C@@H](Cc1ccccc1)C(N)=O` [crystalline solid] (HELM PEPTIDE1{[dR].[Cc1cc(O)cc(C)c1C[C@H](N[*:1])C(=O)[*:2]].K.F.[am]}$$$$V2.0) here?
A: physically kept its integrity

Q: What about the “XRPD pattern after drying (stability upon drying)” value ([1]; dried at 50 C under vacuum overnight) of the same compound?
A: No changes were observed

Q: What about the “XRPD after humidity exposure” value ([1]; dry solid, about 95% relative humidity, room temperature, 24 hours) of the same compound?
A: remained unchanged

Q: And the solubility [2]?
A: ~60000 µg/mL (≈ 93.8 mM)

Q: What does the source list for `Cc1cc(O)cc(C)c1C[C@H](NC(=O)[C@H](N)CCCNC(=N)N)C(=O)N[C@@H](CCCCN)C(=O)N[C@@H](Cc1ccccc1)C(N)=O` [MTP-131 HCl] (HELM PEPTIDE1{[dR].[Cc1cc(O)cc(C)c1C[C@H](N[*:1])C(=O)[*:2]].K.F.[am]}$$$$V2.0)?
A: Relative humidity at which the salt deliquesces [1]: more than 70 % relative humidity; Hygroscopicity by GVS [3]: highly hygroscopic; GVS mass increase ([3]; between 40-90% RH): ca. 30%; State of solid after GVS ([3]; ramping up to 90% RH): deliquesced and adhered to the basket; solubility [4]: ≤ 10000 µg/mL; solubility ([4]; 2-Propanol, Solubility at 50° C.): < 10000 µg/mL; solubility ([4]; 2-Propanol:Water (95:5 v/v), Solubility at 50° C., 2-Propanol:Water (95:5 v/v)): < 10000 µg/mL; solubility ([4]; 2-Propanol:Water (99:1 v/v), Solubility at 50° C., 2-Propanol:Water (99:1 v/v)): < 10000 µg/mL; solubility ([4]; Acetone, Solubility at 50° C.): < 10000 µg/mL; solubility ([4]; Acetone:Water (95:5 v/v), Solubility at 50° C., Acetone:Water (95:5 v/v)): < 10000 µg/mL; solubility ([4]; Acetonitrile:DMSO (85:15 v/v), Solubility at 50° C., Acetonitrile:DMSO (85:15 v/v)): < 10000 µg/mL; solubility ([4]; Acetonitrile:Water (95:5 v/v), Solubility at 50° C., Acetonitrile:Water (95:5 v/v)): < 10000 µg/mL; solubility ([4]; Acetonitrile:Water (99:1 v/v), Solubility at 50° C., Acetonitrile:Water (99:1 v/v)): < 10000 µg/mL; solubility ([4]; DCM:DMSO (85:15 v/v), Solubility at 50° C., DCM:DMSO (85:15 v/v)): < 10000 µg/mL; solubility ([4]; Dichloromethane, Solubility, carried out at 35° C. (footnote)): < 10000 µg/mL; solubility ([4]; Ethanol, Solubility at 50° C.): 10000 µg/mL; solubility ([4]; Ethanol:DMSO (95:5% v/v), Solubility at 50° C., Ethanol:DMSO (95:5% v/v)): ~33000 µg/mL; solubility ([4]; Ethanol:Water (95:5 v/v), Solubility at 50° C., Ethanol:Water (95:5 v/v)): ~67000 µg/mL; solubility ([4]; Methanol, Solubility at 50° C.): > 200000 µg/mL; solubility ([4]; Methanol:Water (95:5 v/v), Solubility at 50° C., Methanol:Water (95:5 v/v)): > 200000 µg/mL; solubility ([4]; THF:Water (95:5% v/v), Solubility at 50° C., THF:Water (95:5% v/v), (separated)): < 10000 µg/mL; solubility ([4]; THF:Water (99:1 v/v), Solubility at 50° C., THF:Water (99:1 v/v)): < 10000 µg/mL; solubility ([4]; Trifluoroethanol, Solubility at 50° C.): < 10000 µg/mL
